The subject of assay [1] is Cardiac muscle cell. In words: Cytoprotective effect in rat cardiomyocytes under hypoxia-reoxygenation condition assessed as cell viability at 1 uM by trypan blue exclusion test. Type of assay: functional, cell-based.
Assay [2] relates to Cardiac muscle cell. Description: Cytoprotective effect in rat cardiomyocytes under hypoxia-reoxygenation condition assessed as cell viability at 1 uM by trypan blue exclusion test in presence of etomoxir. Type of assay: functional, cell-based.

Calls of active or inactive are those of the source. The rule behind the calls is not given here.

Five molecules from ChEMBL document CHEMBL1157548, “Mitochondrial biotransformation of omega-(phenoxy)alkanoic acids, 3-(phenoxy)acrylic acids, and omega-(1-methyl-1H-imidazol-2-ylthio)alkanoic acids: a prodrug strategy for targeting cytoprotective antioxidants to mitochondria” (Bioorg Med Chem, 2010) can be followed below.

In the case of `Cn1ccnc1S`, in assay [1], the outcome was inactive.

As for `Cn1ccnc1SCCC(=O)O`, in assay [2], the outcome was inactive. For the same molecule, the result in assay [1] was Active.

Turning to `Cc1cccc(C)c1OCCC(=O)O`, in assay [2], the result was inactive. Further, the result in assay [1] was Active.

As for `Cc1cccc(C)c1O/C=C/C(=O)O`, in assay [2], the outcome was inactive. In addition, the result in assay [1] was Active.

Take `Cn1ccnc1SCCCCC(=O)O`: the result in assay [2] was inactive. The outcome in assay [1] was Active.
